Where two headings read alike, the source gives them in different places.
Molecular target: T1, purified human IDO protein (Homo sapiens, UniProt P14902)
T1 construct: 2 extra amino acids (linker from the BglII cloning site of pQE70); made in house; host or cells: E. coli M15(pREP4) with plasmid pQE70-hIDO
Assay: Enzymatic IDO assay (kynurenine production, absorbance at 480 nm)
Assay type: biochemical
Settings: values reported in ranges
Procedure: The inhibitors were initially diluted in DMSO at 100 mM and were diluted in potassium phosphate 50 mM, added to the reaction mixture at final concentrations raging from 1 mM to 5 nM and preincubated with the enzyme for 5 min at 25° C. The reaction was started by addition of L-tryptophan to 200 μM and incubated 15 min at 37° C. The reaction was stopped by addition of 0.5 vol of 30% trichloroacetic acid and incubated 30 min at 60° C. to hydrolyze N-formylkynurenine to kynurenine. The reaction was centrifuged at 3400 g for 5 min to remove precipitated protein and the supernatant was reacted with 2% (w/v) of p-dimethylaminobenzaldehyde in acetic acid. The reaction was incubated 10 min at 25° C. and read at 480 nm in a spectrophotometer. […] Nonlinear regressions and determination of the IC50 values were performed using the GraphPad Prism 4 software.

[1] = recombinant human IDO, read-out: hIDO IC50

T1 sequence (P14902 whole entry P110S/E119G): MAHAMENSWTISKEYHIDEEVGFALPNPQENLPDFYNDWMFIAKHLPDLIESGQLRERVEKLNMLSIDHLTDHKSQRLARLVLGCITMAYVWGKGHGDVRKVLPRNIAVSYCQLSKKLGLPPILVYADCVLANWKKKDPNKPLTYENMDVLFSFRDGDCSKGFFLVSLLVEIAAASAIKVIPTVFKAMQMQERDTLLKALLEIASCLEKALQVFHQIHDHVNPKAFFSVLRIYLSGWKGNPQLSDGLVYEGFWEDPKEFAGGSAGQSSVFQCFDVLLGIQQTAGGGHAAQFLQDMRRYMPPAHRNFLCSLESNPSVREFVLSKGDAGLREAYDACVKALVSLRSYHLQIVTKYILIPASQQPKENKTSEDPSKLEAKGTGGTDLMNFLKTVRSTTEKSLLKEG

| IC50 [1] [µM] | Compound | IC50 (hIDO IC50, recombinant human IDO) [µM] |
| --- | --- | --- |
| > 100 | C=CCn1cncc1-c1ccccc1 [compound 1131, 1-allyl-5-phenyl-1H-imidazole] |  |
| 1 to 10 | O=C(Nc1ccc(CCOc2ccccc2-c2c[nH]cn2)cc1)OCc1ccccc1 [compound 1136, benzyl (4-(2-(2-(1H-imidazol-4-yl)phenoxy)ethyl)phenyl)carbamate] |  |
| > 100 | CC1Cn2cncc2-c2ccccc21 (stereo not drawn) [compound 1137, 6-methyl-5,6-dihydroimidazo[5,1-a]isoquino-line] |  |
| 10 to 100 | Oc1ccccc1-c1cnco1 [compound 1139, 2-(oxazol-5-yl)phenol] |  |
| 10 to 100 | CC(C)(C)CC(=O)N1CCC(CCOc2ccccc2-c2c[nH]cn2)CC1 [compound 1143, 1-(4-(2-(2-(1H-imidazol-4-yl)phenoxy)ethyl)piperidin-1-yl)-3,3-dimethylbutan-1-one] |  |
|  | O=C1NCCN1C(=O)Oc1ccc(Cl)cc1-c1c[nH]cn1 [compound 1147, 4-chloro-2-(1H-imidazol-4-yl)phenyl 2-oxoimidazolidine-1-carboxylate] | 1 to 10 |
| 1 to 10 | Oc1cccc(OCCc2ccc(Cl)cc2)c1-c1cnc[nH]1 [compound 1148, 3-(4-chlorophenethoxy)-2-(1H-imidazol-5-yl) phenol] |  |
| 10 to 100 | CC(C)(C)COC(=O)N1CCC(CCOc2ccccc2-c2c[nH]cn2)CC1 [compound 1149, neopentyl 4-(2-(2-(1H-imidazol-4-yl)phenoxy)ethyl)piperidine-1-carboxylate] |  |
| 1 to 10 | O=C(Nc1ccc(CCOc2ccccc2-c2c[nH]cn2)cc1)c1cccs1 [compound 1150, N-(4-(2-(2-(1H-imidazol-4-yl)phenoxy)ethyl)phenyl)thiophene-2-carboxamide] |  |
| 1 to 10 | O=S(=O)(Cc1ccccc1)Nc1ccc(CCOc2ccccc2-c2c[nH]cn2)cc1 [compound 1151, N-(4-(2-(2-(1H-imidazol-4-yl)phenoxy)ethyl)phenyl)-1-phenylmethanesulfonamide] |  |
| < 1 | O=C(Nc1ccccc1)Nc1ccc(CCOc2ccccc2-c2cnc[nH]2)cc1 [compound 1152, 1-(4-(2-(2-(1H-imidazol-4-yl)phenoxy)ethyl)phenyl)-3-phenylurea] |  |
| 10 to 100 | O=C(Cc1cnccn1)Nc1ccc(CCOc2ccccc2-c2c[nH]cn2)cc1 [compound 1153, N-(4-(2-(2-(1H-imidazol-4-yl)phenoxy)ethyl)phenyl)-2-(pyrazin-2-yl)acetamide] |  |
| 1 to 10 | O=C(Cc1cccs1)Nc1ccc(CCOc2ccccc2-c2c[nH]cn2)cc1 [compound 1154, N-(4-(2-(2-(1H-imidazol-4-yl)phenoxy)ethyl)phenyl)-2-(thiophen-2-yl)acetamide] |  |
| 1 to 10 | O=C(Cc1cnccn1)Nc1ccc(CCOc2ccccc2-c2c[nH]cn2)cc1 [compound 1156, N-(4-(2-(2-(1H-imidazol-4-yl)phenoxy)ethyl)phenyl)-2-(pyrazin-2-yl)acetamide] |  |
| 1 to 10 | CC(=O)Nc1ccc(CCOc2ccccc2-c2c[nH]cn2)c(Cl)c1 [compound 1159, N-(4-(2-(2-(1H-imidazol-4-yl)phenoxy)ethyl)-3-chlorophenyl)acetamide] |  |
| 1 to 10 | Oc1cccc(OCCc2cccc(Cl)c2)c1-c1cnc[nH]1 [compound 1160, 3-(3-chlorophenethoxy)-2-(1H-imidazol-5-yl) phenol] |  |
| 1 to 10 | O=C(c1cccs1)N1CCC(CCOc2ccccc2-c2c[nH]cn2)CC1 [compound 1165, (4-(2-(2-(1H-imidazol-4-yl)phenoxy)ethyl)piperidin-1-yl)(thiophen-2-yl)methanone] |  |
| 1 to 10 | Oc1ccc(Cl)c(OCCC2CCCCC2)c1-c1cnc[nH]1 [compound 1172, 4-chloro-3-(2-cyclohexylethoxy)-2-(1H-imidazol-5-yl)phenol] |  |
| 1 to 10 | O=C(Cc1cccs1)N1CCC(CCOc2ccccc2-c2c[nH]cn2)CC1 [compound 1176, 1-(4-(2-(2-(1H-imidazol-4-yl)phenoxy)ethyl)piperidin-1-yl)-2-(thiophen-2-yl)ethanone] |  |
| 1 to 10 | Clc1cccc(-c2cnc[nH]2)c1OCCC1CCCCC1 [compound 1177, 5-(3-chloro-2-(2-cyclohexylethoxy)phenyl)-1H-imidazole] |  |
| 10 to 100 | CN(C)c1ccc(CCOc2ccccc2-c2c[nH]cn2)cc1 [compound 1181, 4-(2-(2-(1H-imidazol-4-yl)phenoxy)ethyl)-N,N-dimethylaniline] |  |
| 1 to 10 | Oc1cccc(OCCC2CC=CCC2)c1-c1cnc[nH]1 (stereo not drawn) [compound 1182, 3-(2-(cyclohex-3-en-1-yl)ethoxy)-2-(1H-imidazol-5-yl)phenol] |  |
| 1 to 10 | O=C(Cc1ccccc1)N1CCC(CCOc2ccccc2-c2c[nH]cn2)CC1 [compound 1186, 1-(4-(2-(2-(1H-imidazol-4-yl)phenoxy)ethyl)piperidin-1-yl)-2-phenylethanone] |  |

| IC50 [1] [µM] | Compound | IC50 (hIDO IC50, recombinant human IDO) [µM] |
| --- | --- | --- |
| 1 to 10 | C1=CCC(CCOc2ccccc2-c2c[nH]cn2)CC1 (stereo not drawn) [compound 1191, 4-(2-(2-(cyclohex-3-en-1-yl)ethoxy)phenyl)-1H-imidazole] |  |
| < 1 | O=C(Nc1ccc(CCOc2ccccc2-c2c[nH]cn2)cc1)Nc1ccccc1[N+](=O)[O-] [compound 1192, 1-(4-(2-(2-(1H-imidazol-4-yl)phenoxy)ethyl)phenyl)-3-(2-nitrophenyl)urea] |  |
| 10 to 100 | c1csc(CCOc2ccccc2-c2c[nH]cn2)c1 [compound 1198, 4-(2-(2-(thiophen-2-yl)ethoxy)phenyl)-1H-imidazole] |  |
| 1 to 10 | O=C(CC1CCCO1)Nc1ccc(CCOc2ccccc2-c2c[nH]cn2)cc1 (stereo not drawn) [compound 1199, N-(4-(2-(2-(1H-imidazol-4-yl)phenoxy)ethyl)phenyl)-2-(tetrahydrofuran-2-yl)acetamide] |  |
| 10 to 100 | c1csc(-c2ccc(CCOc3ccccc3-c3c[nH]cn3)cc2)c1 [compound 1200, 4-(2-(4-(thiophen-2-yl)phenethoxy)phenyl)-1H-imidazole] |  |
| 10 to 100 | c1ccc(-c2c[nH]cn2)c(OCCc2ccc(-c3ccsc3)cc2)c1 [compound 1201, 4-(2-(4-(thiophen-3-yl)phenethoxy)phenyl)-1H-imidazole] |  |
| 10 to 100 | c1ccc(-c2c[nH]cn2)c(OCCc2csc3ccccc23)c1 [compound 1202, 4-(2-(2-(benzo[b]thiophen-3-yl)ethoxy)phenyl)-1H-imidazole] |  |
| 10 to 100 | c1ccc(-c2c[nH]cn2)c(OCCc2ccsc2)c1 [compound 1203, 4-(2-(2-(thiophen-3-yl)ethoxy)phenyl)-1H-imidazole] |  |
| 1 to 10 | O=C(Nc1ccc(CCOc2ccccc2-c2c[nH]cn2)cc1)c1ccc[nH]c1=O [compound 1204, N-(4-(2-(2-(1H-imidazol-4-yl)phenoxy)ethyl)phenyl)-2-oxo-1,2-dihydropyridine-3-carboxamide] |  |
| > 100 | CC(=O)NCc1ccccc1-c1c[nH]cn1 [compound 1207, N-(2-(1H-imidazol-4-yl)benzyl)acetamide] |  |
| 1 to 10 | O=C(CC1CCOCC1)Nc1ccc(CCOc2ccccc2-c2c[nH]cn2)cc1 [compound 1211, N-(4-(2-(2-(1H-imidazol-4-yl)phenoxy)ethyl)phenyl)-2-(tetrahydro-2H-pyran-4-yl)acetamide] |  |
| 10 to 100 | CN1CCN(CC(=O)Nc2ccc(CCOc3ccccc3-c3c[nH]cn3)cc2)CC1 [compound 1212, N-(4-(2-(2-(1H-imidazol-4-yl)phenoxy)ethyl)phenyl)-2-(4-methylpiperazin-1-yl)acetamide] |  |
| 10 to 100 | c1ccc(-c2c[nH]cn2)c(OCCC2CCCO2)c1 (stereo not drawn) [compound 1213, 4-(2-(2-(tetrahydrofuran-2-yl)ethoxy)phenyl)-1H-imidazole] |  |
| 1 to 10 | O=C(CN1CCOCC1)Nc1ccc(CCOc2ccccc2-c2c[nH]cn2)cc1 [compound 1214, N-(4-(2-(2-(1H-imidazol-4-yl)phenoxy)ethyl)phenyl)-2-morpholinoacetamide] |  |
| 1 to 10 | NC1CCCCC1NC(=O)Nc1ccc(CCOc2ccccc2-c2c[nH]cn2)cc1 (stereo not drawn) [compound 1216, 1-(4-(2-(2-(1H-imidazol-4-yl)phenoxy)ethyl)phenyl)-3-(2-aminocyclohexyl)urea] |  |
| 1 to 10 | O=C(Cn1ccnc1)Nc1ccc(CCOc2ccccc2-c2c[nH]cn2)cc1 [compound 1217, N-(4-(2-(2-(1H-imidazol-4-yl)phenoxy)ethyl)phenyl)-2-(1H-imidazol-1-yl)acetamide] |  |
| 10 to 100 | Clc1ccc(CCOc2ccccc2-c2c[nH]cn2)cn1 [compound 1218, 5-(2-(2-(1H-imidazol-4-yl)phenoxy)ethyl)-2-chloropyridine] |  |
| 10 to 100 | O=C(CN1CCCCCC1)Nc1ccc(CCOc2ccccc2-c2c[nH]cn2)cc1 [compound 1219, N-(4-(2-(2-(1H-imidazol-4-yl)phenoxy)ethyl)phenyl)-2-(azepan-1-yl)acetamide] |  |
| 1 to 10 | Oc1cc(Cl)cc(-c2cnc[nH]2)c1O [compound 1221, 5-chloro-3-(1H-imidazol-5-yl)benzene-1,2-diol] |  |
| 1 to 10 | c1ccc(Nc2nc3ccc(CCOc4ccccc4-c4c[nH]cn4)cc3o2)cc1 [compound 1222, 6-(2-(2-(1H-imidazol-4-yl)phenoxy)ethyl)-N-phenylbenzo[d]oxazol-2-amine] |  |
| 10 to 100 | c1ccc(-c2c[nH]cn2)c(OCCc2ccc(N3CCCCC3)cc2)c1 [compound 1223, 1-(4-(2-(2-(1H-imidazol-4-yl)phenoxy)ethyl)phenyl)piperidine] |  |
| 1 to 10 | O=C(Nc1ccccc1)Nc1ccc(CCOc2ccccc2-c2c[nH]cn2)cn1 [compound 1224, 1-(5-(2-(2-(1H-imidazol-4-yl)phenoxy)ethyl)pyridin-2-yl)-3-phenylurea] |  |
